Values joined by “and” are separate entries in the source; they are usually repeats but may differ in a detail not shown here. Equal entries are not always repeated. Where a SMILES comes first, the peptide text is derived from it. [ ]: non-standard residue; d: D form. The star is where a group is joined. ξ: configuration not given here. ξW = NC(Cc1c[nH]c2ccccc12)C(=O)O; Cbz = O=C(OCc1ccccc1)*; ξT = CC(O)C(N)C(=O)O; NHOH = ON*
What follows are molecules tested against T1, Bone morphogenetic protein 1 (Homo sapiens, UniProt P13497) (assay: Inhibitory effect against Procollagen C-terminal proteinase).
T1 sequence (P13497 whole entry): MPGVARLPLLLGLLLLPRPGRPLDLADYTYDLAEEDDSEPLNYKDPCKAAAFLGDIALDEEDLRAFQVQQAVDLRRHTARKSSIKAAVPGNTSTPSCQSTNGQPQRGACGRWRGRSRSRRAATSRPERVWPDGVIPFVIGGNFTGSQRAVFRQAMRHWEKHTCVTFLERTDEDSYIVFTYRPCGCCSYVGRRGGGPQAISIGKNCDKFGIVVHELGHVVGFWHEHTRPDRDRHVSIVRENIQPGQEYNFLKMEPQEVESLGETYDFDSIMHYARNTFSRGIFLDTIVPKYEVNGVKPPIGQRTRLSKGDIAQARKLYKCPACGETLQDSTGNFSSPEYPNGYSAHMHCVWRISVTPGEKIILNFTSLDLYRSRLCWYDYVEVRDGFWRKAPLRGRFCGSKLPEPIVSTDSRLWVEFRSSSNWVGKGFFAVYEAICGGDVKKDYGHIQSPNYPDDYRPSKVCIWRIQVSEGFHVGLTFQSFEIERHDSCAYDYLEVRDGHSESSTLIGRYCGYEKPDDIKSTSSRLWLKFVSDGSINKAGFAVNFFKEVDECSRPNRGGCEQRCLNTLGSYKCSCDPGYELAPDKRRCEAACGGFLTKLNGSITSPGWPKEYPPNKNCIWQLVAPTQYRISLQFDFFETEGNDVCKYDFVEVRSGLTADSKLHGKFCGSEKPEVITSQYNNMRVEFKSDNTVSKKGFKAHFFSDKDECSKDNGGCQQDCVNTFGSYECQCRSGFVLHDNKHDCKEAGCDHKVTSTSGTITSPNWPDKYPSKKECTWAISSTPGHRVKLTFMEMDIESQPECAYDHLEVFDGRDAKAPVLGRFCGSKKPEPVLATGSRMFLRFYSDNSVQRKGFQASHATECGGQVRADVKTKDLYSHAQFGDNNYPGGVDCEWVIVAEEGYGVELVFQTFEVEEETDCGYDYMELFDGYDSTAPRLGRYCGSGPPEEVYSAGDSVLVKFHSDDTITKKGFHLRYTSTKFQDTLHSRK

IC50	Structure (SMILES)
44 nM	CC[C@@H](C)[C@H](NC(=O)C(Cc1ccccc1)NC(=O)OCc1ccccc1)C(=O)N[C@@H](Cc1cscn1)C(=O)NO (stereo not given in full)
26 nM	CC[C@H](C)[C@H](NS(=O)(=O)c1ccc(Br)c(Br)c1)C(=O)N[C@@H](CNC(=O)OCc1ccccc1)C(=O)NO
750 nM	CC[C@H](C)[C@@H](Nc1ccc(Cl)c(Cl)c1)C(=O)N[C@H](Cc1cc2ccccc2[nH]1)C(=O)NO
190 nM	CC[C@@H](C)[C@@H](NC(=O)OCc1ccccc1)C(=O)NC(Cc1ccccc1Cl)C(=O)NO (stereo not given in full)
200 nM and 220 nM	CC[C@@H](C)[C@@H](NC(=O)OCc1ccccc1)C(=O)N[C@H](Cc1ccc([N+](=O)[O-])cc1)C(=O)NO
61 nM	CC[C@@H](C)[C@@H](NC(=O)OCc1ccccc1)C(=O)NCC(NC(=O)OCc1ccccc1)C(=O)NO (stereo not given in full)
67 nM	CC[C@@H](C)[C@H](NC(=O)C(Cc1c[nH]c2ccccc12)NC(=O)OCc1ccccc1)C(=O)N[C@@H](Cc1cscn1)C(=O)NO (stereo not given in full)
2800 nM	CC[C@H](C)[C@@H](Nc1cccc(C(F)(F)F)c1)C(=O)N[C@H](Cc1cc2ccccc2[nH]1)C(=O)NO
78 nM	CC[C@@H](C)[C@H](NC(=O)C(COCc1ccccc1)NC(=O)OCc1ccccc1)C(=O)N[C@@H](Cc1cscn1)C(=O)NO (stereo not given in full)
65000 nM	CC(=O)N[C@@H](Cc1ccc(O)cc1)C(=O)N[C@@H](Cc1ccc(O)cc1)C(=O)NCC(=O)NO (Ac-Tyr-Tyr-Gly-{NHOH})
20000 nM	O=C(N[C@H](Cc1ccc(O)cc1)C(=O)N[C@@H](Cc1c[nH]c2ccccc12)C(=O)NO)OCc1ccccc1
110 nM	CC[C@@H](C)[C@H](NC(=O)C(CC(C)C)NC(=O)OCc1ccccc1)C(=O)N[C@@H](Cc1cscn1)C(=O)NO (stereo not given in full)
870 nM	CCCC(NC(=O)OCc1ccccc1)C(=O)N[C@H](Cc1c[nH]c2ccccc12)C(=O)NO (stereo not given in full)
90 nM	CC[C@@H](C)[C@@H](NC(=O)OCc1cccc(C(F)(F)F)c1)C(=O)N[C@H](Cc1cscn1)C(=O)NO
3600 nM	CC[C@H](C)[C@@H](NC(=O)NCCc1ccccc1)C(=O)N[C@H](Cc1cc2ccccc2[nH]1)C(=O)NO
67 nM	CC[C@H](C)[C@H](NS(=O)(=O)c1cc(C)c(Cl)cc1C)C(=O)N[C@@H](CNC(=O)OCc1ccccc1)C(=O)NO
1900 nM	CC(C)C(NC(=O)OCc1ccccc1)C(=O)N[C@H](Cc1c[nH]c2ccccc12)C(=O)NO (stereo not given in full)
68000 nM	CNC(=O)[C@H](CCC(N)=O)NC(=O)[C@H](CC(=O)O)CC(=O)NO
19000 nM	O=C(NC(Cc1c[nH]c2ccccc12)C(=O)N[C@@H](Cc1c[nH]c2ccccc12)C(=O)NO)OCc1ccccc1 (stereo not given in full) (Cbz-[ξW]-Trp-{NHOH})
210 nM	CC[C@@H](C)[C@@H](NC(=O)OCc1ccccc1)C(=O)N[C@H](Cc1ccc(Br)s1)C(=O)NO

IC50	Structure (SMILES)
49 nM	CC[C@@H](C)[C@@H](NS(=O)(=O)c1cc(Cl)c(Cl)cc1Cl)C(=O)N[C@H](Cc1cscn1)C(=O)NO
280000 nM	CC(=O)N[C@@H](Cc1ccc(O)cc1)C(=O)NCC(=O)NO
3000 nM	O=C(O)CCC(NC(=O)OCc1ccccc1)C(=O)N[C@H](Cc1c[nH]c2ccccc12)C(=O)NO (stereo not given in full)
52 nM	CC[C@H](C)[C@H](NS(=O)(=O)c1cc(Br)c(Br)s1)C(=O)N[C@@H](CNC(=O)OCc1ccccc1)C(=O)NO
5000 nM	CC[C@H](C)[C@@H](NC(=O)Nc1ccccc1Cl)C(=O)N[C@H](Cc1cc2ccccc2[nH]1)C(=O)NO
18000 nM	O=C(N[C@H](Cc1ccccc1)C(=O)N[C@@H](Cc1c[nH]c2ccccc12)C(=O)NO)OCc1ccccc1
> 800000 nM	CC(=O)N[C@@H](CCCNC(=N)N)C(=O)N[C@@H](C)C(=O)NO (Ac-Arg-Ala-{NHOH})
110 nM	CC[C@@H](C)[C@@H](NCN(Cc1ccc(F)cc1)C(=O)c1cccc(C)c1)C(=O)N[C@H](Cc1cscn1)C(=O)NO
73 nM	CC[C@@H](C)[C@@H](NC(=O)OCc1ccc(Cl)c(Cl)c1)C(=O)N[C@H](Cc1cscn1)C(=O)NO
130 nM	CC[C@@H](C)[C@@H](NC(=O)OCc1ccccc1)C(=O)NC(Cc1ccc(OC(C)(C)C)cc1)C(=O)NO (stereo not given in full)
17000 nM	O=C(N[C@@H](Cc1ccccc1)C(=O)N[C@@H](Cc1c[nH]c2ccccc12)C(=O)NO)OCc1ccccc1
150 nM	CC[C@@H](C)[C@@H](NC(=O)OCc1cc(Cl)cc(Cl)c1)C(=O)N[C@H](Cc1cscn1)C(=O)NO
1200 nM	O=C(NC(C(=O)N[C@H](Cc1c[nH]c2ccccc12)C(=O)NO)c1ccccc1)OCc1ccccc1 (stereo not given in full)
32 nM	CC[C@H](C)[C@H](NS(=O)(=O)c1cc(Br)c(Br)s1)C(=O)NC(Cc1cscn1)C(=O)NO (stereo not given in full)
15000 nM	CC(O)C(NC(=O)OCc1ccccc1)C(=O)N[C@@H](Cc1c[nH]c2ccccc12)C(=O)NO (stereo not given in full) (Cbz-[ξT]-Trp-{NHOH})
65 nM	CC[C@H](C)[C@H](NS(=O)(=O)c1cc(Cl)ccc1Cl)C(=O)N[C@@H](CNC(=O)OCc1ccccc1)C(=O)NO
19000 nM	O=C(CCCNC(=O)OCc1ccccc1)N[C@@H](Cc1c[nH]c2ccccc12)C(=O)NO
78 nM	CC[C@@H](C)[C@H](NC(=O)C(Cc1ccc(F)cc1)NC(=O)OCc1ccccc1)C(=O)N[C@@H](Cc1cscn1)C(=O)NO (stereo not given in full)
22000 nM	CNC(=O)C1CCCN1C(=O)[C@H](CCC(N)=O)NC(=O)[C@H](CC(=O)O)CC(=O)NO (stereo not given in full)
89 nM	CC[C@@H](C)[C@@H](NCN(Cc1ccc(F)cc1)C(=O)c1ccc(Br)cc1)C(=O)N[C@H](Cc1cscn1)C(=O)NO

IC50	Structure (SMILES)
2100 nM	CC[C@H](C)[C@@H](NC(=O)Nc1ccccc1[N+](=O)[O-])C(=O)N[C@H](Cc1cc2ccccc2[nH]1)C(=O)NO
200 nM	CC[C@@H](C)[C@@H](NC(=O)OCc1ccccc1)C(=O)NC(Cc1ccc(-c2ccccc2)cc1)C(=O)NO (stereo not given in full)
78 nM	CC[C@@H](C)[C@@H](NC(=O)OCc1ccccc1Br)C(=O)N[C@H](Cc1cscn1)C(=O)NO
5100 nM	CC[C@H](C)[C@@H](NC(=O)Nc1cc(Cl)cc(Cl)c1)C(=O)N[C@H](Cc1cc2ccccc2[nH]1)C(=O)NO
30 nM	CC[C@@H](C)[C@@H](NS(=O)(=O)c1ccc(Br)c(Br)c1)C(=O)N[C@H](Cc1cscn1)C(=O)NO
43 nM	CC[C@@H](C)[C@@H](NS(=O)(=O)C1=CCC(C)(Cl)C=C1C)C(=O)N[C@H](Cc1cscn1)C(=O)NO (stereo not given in full)
110 nM	CC[C@@H](C)[C@@H](NC(=O)OCc1ccccc1)C(=O)N[C@H](Cc1cscn1)C(=O)NO (stereo in doubt; form 2)
140 nM	CC[C@@H](C)[C@@H](NCN(Cc1ccc(F)cc1)C(=O)c1ccc(C(C)(C)C)cc1)C(=O)N[C@H](Cc1cscn1)C(=O)NO
43 nM	CC[C@@H](C)[C@H](NC(=O)C(CCSC)NC(=O)OCc1ccccc1)C(=O)N[C@@H](Cc1cscn1)C(=O)NO (stereo not given in full)
730 nM	CC[C@H](C)[C@@H](NC(=O)OCc1ccccc1)C(=O)N[C@H](Cc1c[nH]c2ccccc12)C(=O)NO
67000 nM	O=C(NC(Cc1c[nH]c2ccccc12)C(=O)NO)OCc1ccccc1 (stereo not given)
90 nM	CC[C@@H](C)[C@@H](NCN(Cc1ccc(F)cc1)C(=O)c1ccc(F)cc1)C(=O)N[C@H](Cc1cscn1)C(=O)NO
110 nM	CC[C@@H](C)[C@@H](NC(=O)OCc1ccccc1)C(=O)N[C@H](Cc1cscn1)C(=O)NO (stereo in doubt; form 1)
29 nM	CC[C@@H](C)[C@@H](NS(=O)(=O)c1cc(Cl)ccc1Cl)C(=O)N[C@H](Cc1cscn1)C(=O)NO
200 nM	CC[C@@H](C)[C@@H](NC(=O)OCc1ccccc1)C(=O)N[C@H](Cc1ccc(Br)cc1)C(=O)NO
50 nM	CC[C@@H](C)[C@@H](NCN(Cc1ccc(F)cc1)C(=O)c1ccc(Cl)cc1)C(=O)N[C@H](Cc1cscn1)C(=O)NO
94 nM	CC[C@@H](C)[C@@H](NC(=O)OCc1ccccc1)C(=O)NCC(NCc1ccccc1)C(=O)NO (stereo not given in full)
53 nM	CC[C@@H](C)[C@@H](NCN(Cc1ccc(F)cc1)C(=O)c1cccc(Cl)c1)C(=O)N[C@H](Cc1cscn1)C(=O)NO
250 nM	CC[C@@H](C)[C@@H](NC(=O)OCc1ccccc1)C(=O)N[C@H](Cc1cnc[nH]1)C(=O)NO
220 nM	CC[C@@H](C)[C@@H](NC(=O)OCc1ccccc1)C(=O)N[C@H](Cc1ccccn1)C(=O)NO

From ChEMBL document CHEMBL1132808, “Solid-phase synthesis of di- and tripeptidic hydroxamic acids as inhibitors of procollagen C-proteinase” (Bioorg Med Chem Lett, 2000)
